Biological target: human CXCR3A (Homo sapiens (Human), UniProt P49682)
Assay: FLIPR assay (inhibition of CXCL10-induced calcium signal)
Assay type: cell-based
Settings: engineered CHO-K1 cells expressing human CXCR3A coupled to Galpha(16); Fluo-4-AM; CXCL10 agonist 20 nM; mean values where determined several times
Procedure, shortened: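 CHO-K1 cells expressing human CXCR3A coupled to Gα16 were loaded with Fluo-4-AM for 1 h in HBSS/20 mM Hepes pH 7.4 with probenecid. Compound was added, then CXCL10 (20 nM as dispensed). Baseline-subtracted peak fluorescence gave inhibition curves and IC50, averaged over repeats.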

human CXCR3A, sequence (P49682 whole entry): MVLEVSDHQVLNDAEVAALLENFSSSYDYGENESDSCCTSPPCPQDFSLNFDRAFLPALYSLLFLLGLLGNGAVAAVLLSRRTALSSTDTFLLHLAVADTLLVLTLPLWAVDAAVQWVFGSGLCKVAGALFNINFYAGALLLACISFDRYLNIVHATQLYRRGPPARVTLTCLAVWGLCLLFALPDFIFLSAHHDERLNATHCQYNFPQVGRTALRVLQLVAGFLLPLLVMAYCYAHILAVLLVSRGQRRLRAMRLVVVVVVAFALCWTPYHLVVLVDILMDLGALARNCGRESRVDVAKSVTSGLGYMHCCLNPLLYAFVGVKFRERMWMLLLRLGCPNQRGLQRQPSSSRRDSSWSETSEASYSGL

Row | SMILES | IC50 [nM]
1 | C[C@@H]1CN(c2cccc3c2CN(C(=O)[C@@H]2CCCc4ccccc42)CC3)CCN1C(=O)Cn1cnc2cccnc21 [Example 71, 2-Imidazo[4,5-b]pyridin-3-yl-1-{(R)-2-methyl-4-[2-((R)-1,2,3,4-tetrahydro-naphthalene-1-carbonyl)-1,2,3,4-tetrahydro-isoquinolin-8-yl]-piperazin-1-yl}-ethanone] | 80.2
2 | C[C@@H]1CN(c2cccc3c2CN(C(=O)c2ccccc2)CC3)CCN1C(=O)Cn1cnc2cccnc21 [Example 72, 1-[(R)-4-(2-Benzoyl-1,2,3,4-tetrahydro-isoquinolin-8-yl)-2-methyl-piperazin-1-yl]-2-imidazo[4,5-b]pyridin-3-yl-ethanone] | 92.2
3 | Cc1ccc(C(=O)N2CCc3cccc(N4CCN(C(=O)Cn5cnc6cccnc65)[C@H](C)C4)c3C2)cc1 [Example 73, 2-Imidazo[4,5-b]pyridin-3-yl-1-{(R)-2-methyl-4-[2-(4-methyl-benzoyl)-1,2,3,4-tetrahydro-isoquinolin-8-yl]-piperazin-1-yl}-ethanone] | 111
4 | C[C@@H]1CN(c2cccc3c2CN(C(=O)c2ccc(Cl)cc2)CC3)CCN1C(=O)Cn1cnc2cccnc21 [Example 74, 1-{(R)-4-[2-(4-Chloro-benzoyl)-1,2,3,4-tetrahydro-isoquinolin-8-yl]-2-methyl-piperazin-1-yl}-2-imidazo[4,5-b]pyridin-3-yl-ethanone] | 46.6
5 | C[C@@H]1CN(c2cccc3c2CN(C(=O)c2ccc(Cl)c(Cl)c2)CC3)CCN1C(=O)Cn1cnc2cccnc21 [Example 75, 1-{(R)-4-[2-(3,4-Dichloro-benzoyl)-1,2,3,4-tetrahydro-isoquinolin-8-yl]-2-methyl-piperazin-1-yl}-2-imidazo[4,5-b]pyridin-3-yl-ethanone] | 17
6 | C[C@@H]1CN(c2cccc3c2CN(C(=O)c2cccc(N(C)C)c2)CC3)CCN1C(=O)Cn1cnc2cccnc21 [Example 76, 1-{(R)-4-[2-(3-Dimethylamino-benzoyl)-1,2,3,4-tetrahydro-isoquinolin-8-yl]-2-methyl-piperazin-1-yl}-2-imidazo[4,5-b]pyridin-3-yl-ethanone] | 82.4
7 | C[C@@H]1CN(c2cccc3c2CN(C(=O)c2ccc(C(F)(F)F)cc2)CC3)CCN1C(=O)Cn1cnc2cccnc21 [Example 77, 2-Imidazo[4,5-b]pyridin-3-yl-1-{(R)-2-methyl-4-[2-(4-trifluoromethyl-benzoyl)-1,2,3,4-tetrahydro-isoquinolin-8-yl]-piperazin-1-yl}-ethanone] | 92.3
8 | C[C@@H]1CN(c2cccc3c2CN(C(=O)Cc2ccccc2)CC3)CCN1C(=O)Cn1cnc2cccnc21 [Example 78, 2-Imidazo[4,5-b]pyridin-3-yl-1-[(R)-2-methyl-4-(2-phenylacetyl-1,2,3,4-tetrahydro-isoquinolin-8-yl)-piperazin-1-yl]-ethanone] | 216
9 | C[C@@H]1CN(c2cccc3c2CN(C(=O)[C@H](C)c2ccccc2)CC3)CCN1C(=O)Cn1cnc2cccnc21 [Example 79, (R)-1-{8-[(R)-4-(2-Imidazo[4,5-b]pyridin-3-yl-acetyl)-3-methyl-piperazin-1-yl]-3,4-dihydro-1H-isoquinolin-2-yl}-2-phenyl-propan-1-one] | 570
10 | C[C@@H]1CN(c2cccc3c2CN(C(=O)C2(c4ccccc4)CC2)CC3)CCN1C(=O)Cn1cnc2cccnc21 [Example 80, 2-Imidazo[4,5-b]pyridin-3-yl-1-{(R)-2-methyl-4-[2-(1-phenyl-cyclopropanecarbonyl)-1,2,3,4-tetrahydro-isoquinolin-8-yl]-piperazin-1-yl}-ethanone] | 199
11 | C[C@@H]1CN(c2cccc3c2CN(C(=O)COc2ccccc2)CC3)CCN1C(=O)Cn1cnc2cccnc21 [Example 81, 2-Imidazo[4,5-b]pyridin-3-yl-1-{(R)-2-methyl-4-[2-(2-phenoxy-acetyl)-1,2,3,4-tetrahydro-isoquinolin-8-yl]-piperazin-1-yl}-ethanone] | 65.1
12 | C[C@@H]1CN(c2cccc3c2CN(C(=O)CCc2ccc(Cl)cc2)CC3)CCN1C(=O)Cn1cnc2cccnc21 [Example 82, 3-(4-Chloro-phenyl)-1-{8-[(R)-4-(2-imidazo[4,5-b]pyridin-3-yl-acetyl)-3-methyl-piperazin-1-yl]-3,4-dihydro-1H-isoquinolin-2-yl}-propan-1-one] | 88.1
13 | C[C@@H]1CN(c2cccc3c2CN(C(=O)CCc2ccccc2)CC3)CCN1C(=O)Cn1cnc2cccnc21 [Example 83, 1-{8-[(R)-4-(2-Imidazo[4,5-b]pyridin-3-yl-acetyl)-3-methyl-piperazin-1-yl]-3,4-dihydro-1H-isoquinolin-2-yl}-3-phenyl-propan-1-one] | 450
14 | C[C@@H]1CN(c2cccc3c2CN(C(=O)CCc2ccc(Cl)c(Cl)c2)CC3)CCN1C(=O)Cn1cnc2cccnc21 [Example 84, 3-(3,4-Dichloro-phenyl)-1-{8-[(R)-4-(2-imidazo[4,5-b]pyridin-3-yl-acetyl)-3-methyl-piperazin-1-yl]-3,4-dihydro-1H-isoquinolin-2-yl}-propan-1-one] | 99.7
15 | C[C@@H]1CN(c2cccc3c2CN(C(=O)c2ccc4ncccc4c2)CC3)CCN1C(=O)Cn1cnc2cccnc21 [Example 85, 2-Imidazo[4,5-b]pyridin-3-yl-1-{(R)-2-methyl-4-[2-(quinoline-6-carbonyl)-1,2,3,4-tetrahydro-isoquinolin-8-yl]-piperazin-1-yl}-ethanone] | 866
16 | C[C@@H]1CN(c2cccc3c2CN(C(=O)Cn2cnc4ccccc42)CC3)CCN1C(=O)Cn1cnc2cccnc21 [Example 86, 1-{(R)-4-[2-(2-Benzoimidazol-1-yl-acetyl)-1,2,3,4-tetrahydro-isoquinolin-8-yl]-2-methyl-piperazin-1-yl}-2-imidazo[4,5-b]pyridin-3-yl-ethanone] | 686
17 | C[C@@H]1CN(c2cccc3c2CN(C(=O)Cn2cccn2)CC3)CCN1C(=O)Cn1cnc2cccnc21 [Example 87, 2-Imidazo[4,5-b]pyridin-3-yl-1-{(R)-2-methyl-4-[2-(2-pyrazol-1-yl-acetyl)-1,2,3,4-tetrahydro-isoquinolin-8-yl]-piperazin-1-yl}-ethanone] | 5420
18 | C[C@@H]1CN(c2cccc3c2CN(C(=O)CN2CCOCC2)CC3)CCN1C(=O)Cn1cnc2cccnc21 [Example 88, 2-Imidazo[4,5-b]pyridin-3-yl-1-{(R)-2-methyl-4-[2-(2-morpholin-4-yl-acetyl)-1,2,3,4-tetrahydro-isoquinolin-8-yl]-piperazin-1-yl}-ethanone] | 1910
19 | C[C@@H]1CN(c2cccc3c2CN(C(=O)c2ccnn2C)CC3)CCN1C(=O)Cn1cnc2cccnc21 [Example 89, 2-Imidazo[4,5-b]pyridin-3-yl-1-{(R)-2-methyl-4-[2-(2-methyl-2H-pyrazole-3-carbonyl)-1,2,3,4-tetrahydro-isoquinolin-8-yl]-piperazin-1-yl}-ethanone] | 955
20 | Cc1ccc(N2CCc3cccc(N4CCN(C(=O)Cn5cnc6cccnc65)[C@H](C)C4)c3C2)nc1 [Example 90, 2-Imidazo[4,5-b]pyridin-3-yl-1-{(R)-2-methyl-4-[2-(5-methyl-pyridin-2-yl)-1,2,3,4-tetrahydro-isoquinolin-8-yl]-piperazin-1-yl}-ethanone] | 11.2
21 | C[C@@H]1CN(c2cccc3c2CN(c2ccc(F)cn2)CC3)CCN1C(=O)Cn1cnc2cccnc21 [Example 91, 1-{(R)-4-[2-(5-Fluoro-pyridin-2-yl)-1,2,3,4-tetrahydro-isoquinolin-8-yl]-2-methyl-piperazin-1-yl}-2-imidazo[4,5-b]pyridin-3-yl-ethanone] | 8.01
